Assay [1] concerns the target T1, Serine/threonine-protein kinase Chk1 (Homo sapiens) (UniProt O14757).
T1 sequence (whole entry): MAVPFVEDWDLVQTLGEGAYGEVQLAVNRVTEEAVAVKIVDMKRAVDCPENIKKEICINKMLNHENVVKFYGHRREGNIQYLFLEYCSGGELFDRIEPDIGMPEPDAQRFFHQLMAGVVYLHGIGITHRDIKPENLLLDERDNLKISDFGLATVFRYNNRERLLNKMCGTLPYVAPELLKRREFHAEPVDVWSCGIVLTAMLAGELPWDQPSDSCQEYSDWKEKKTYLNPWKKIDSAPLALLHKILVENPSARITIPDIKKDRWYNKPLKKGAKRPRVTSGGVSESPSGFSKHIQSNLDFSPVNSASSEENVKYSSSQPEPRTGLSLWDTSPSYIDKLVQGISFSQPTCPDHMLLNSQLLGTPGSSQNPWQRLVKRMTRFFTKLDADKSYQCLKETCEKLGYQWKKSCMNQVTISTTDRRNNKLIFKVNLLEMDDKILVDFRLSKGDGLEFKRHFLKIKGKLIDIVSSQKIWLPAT
Kind of assay: Residual activity of CHK1 at 1 uM by microplate scintillation counting.

The target in assay [2] is Ephrin type-A receptor 4 (Homo sapiens) (UniProt P54764). Kind of assay: Residual activity of EPHA4 at 1 uM by microplate scintillation counting.
Chain of Ephrin type-A receptor 4 (Homo sapiens) (P54764 whole entry): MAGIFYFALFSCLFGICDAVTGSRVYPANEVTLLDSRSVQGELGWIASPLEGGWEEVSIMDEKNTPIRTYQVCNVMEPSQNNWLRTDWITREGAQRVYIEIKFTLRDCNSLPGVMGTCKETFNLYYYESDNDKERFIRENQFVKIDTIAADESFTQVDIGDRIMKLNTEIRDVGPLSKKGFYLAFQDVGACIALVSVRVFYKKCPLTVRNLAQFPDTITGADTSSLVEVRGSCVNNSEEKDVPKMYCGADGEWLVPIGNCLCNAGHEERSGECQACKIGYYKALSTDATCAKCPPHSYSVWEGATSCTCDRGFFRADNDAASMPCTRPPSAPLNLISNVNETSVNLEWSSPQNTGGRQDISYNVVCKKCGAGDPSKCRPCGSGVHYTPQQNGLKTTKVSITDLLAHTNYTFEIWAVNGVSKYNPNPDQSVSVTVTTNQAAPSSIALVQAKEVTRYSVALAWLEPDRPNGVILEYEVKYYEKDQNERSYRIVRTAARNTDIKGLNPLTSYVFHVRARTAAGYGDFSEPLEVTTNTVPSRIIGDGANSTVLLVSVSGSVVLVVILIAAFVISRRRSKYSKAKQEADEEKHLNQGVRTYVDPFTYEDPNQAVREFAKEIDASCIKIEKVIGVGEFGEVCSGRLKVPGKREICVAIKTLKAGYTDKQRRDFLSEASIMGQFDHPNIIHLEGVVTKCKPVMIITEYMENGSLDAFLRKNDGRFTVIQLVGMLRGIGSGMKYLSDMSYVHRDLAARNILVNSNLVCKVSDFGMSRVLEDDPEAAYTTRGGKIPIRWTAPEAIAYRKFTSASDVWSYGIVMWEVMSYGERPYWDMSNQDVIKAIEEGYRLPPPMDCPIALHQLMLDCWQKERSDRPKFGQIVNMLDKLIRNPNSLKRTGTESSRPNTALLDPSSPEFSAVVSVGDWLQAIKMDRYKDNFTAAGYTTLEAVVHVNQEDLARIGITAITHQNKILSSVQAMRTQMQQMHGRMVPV
The target of assay [3] is Hepatocyte growth factor receptor (Homo sapiens) (UniProt P08581). Briefly: Residual activity of MET at 0.1 uM by microplate scintillation counting.
Chain of Hepatocyte growth factor receptor (Homo sapiens) (P08581 whole entry): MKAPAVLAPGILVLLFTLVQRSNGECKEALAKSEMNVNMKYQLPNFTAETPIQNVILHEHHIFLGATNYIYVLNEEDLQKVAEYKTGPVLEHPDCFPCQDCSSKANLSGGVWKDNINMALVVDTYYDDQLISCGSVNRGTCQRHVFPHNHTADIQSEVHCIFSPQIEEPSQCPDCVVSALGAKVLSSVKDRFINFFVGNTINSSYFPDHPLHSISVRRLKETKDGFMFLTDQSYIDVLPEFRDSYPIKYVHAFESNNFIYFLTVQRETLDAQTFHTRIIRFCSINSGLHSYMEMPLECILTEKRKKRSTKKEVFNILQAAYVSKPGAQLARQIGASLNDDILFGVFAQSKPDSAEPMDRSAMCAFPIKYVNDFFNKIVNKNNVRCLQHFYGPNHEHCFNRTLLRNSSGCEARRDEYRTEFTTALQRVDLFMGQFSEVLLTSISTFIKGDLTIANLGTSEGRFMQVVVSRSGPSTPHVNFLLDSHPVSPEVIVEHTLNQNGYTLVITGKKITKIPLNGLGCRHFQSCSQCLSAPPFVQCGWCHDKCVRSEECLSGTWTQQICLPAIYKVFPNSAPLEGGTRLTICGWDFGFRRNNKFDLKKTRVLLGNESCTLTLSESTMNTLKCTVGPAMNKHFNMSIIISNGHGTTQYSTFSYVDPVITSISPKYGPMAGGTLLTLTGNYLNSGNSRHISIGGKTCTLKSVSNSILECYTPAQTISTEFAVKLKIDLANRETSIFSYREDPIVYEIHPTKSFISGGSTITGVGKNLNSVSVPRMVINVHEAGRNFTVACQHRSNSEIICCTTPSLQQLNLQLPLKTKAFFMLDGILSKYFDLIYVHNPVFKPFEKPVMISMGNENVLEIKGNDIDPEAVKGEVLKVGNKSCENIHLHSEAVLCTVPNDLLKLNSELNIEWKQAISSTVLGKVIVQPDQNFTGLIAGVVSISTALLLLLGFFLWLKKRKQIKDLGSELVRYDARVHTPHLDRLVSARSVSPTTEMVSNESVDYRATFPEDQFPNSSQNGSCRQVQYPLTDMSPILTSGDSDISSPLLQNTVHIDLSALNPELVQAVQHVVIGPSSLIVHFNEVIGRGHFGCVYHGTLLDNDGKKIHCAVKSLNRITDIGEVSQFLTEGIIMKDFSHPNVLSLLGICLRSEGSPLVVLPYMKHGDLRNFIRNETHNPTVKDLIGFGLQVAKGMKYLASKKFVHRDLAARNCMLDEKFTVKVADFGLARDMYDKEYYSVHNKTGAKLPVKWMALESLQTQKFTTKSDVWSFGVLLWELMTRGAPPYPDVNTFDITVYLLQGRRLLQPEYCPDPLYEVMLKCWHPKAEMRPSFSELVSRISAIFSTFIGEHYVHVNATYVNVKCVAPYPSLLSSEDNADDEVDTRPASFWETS
For assay [4], the target named is T2, Ephrin type-B receptor 3 (Homo sapiens) (UniProt P54753).
T2 sequence (whole entry): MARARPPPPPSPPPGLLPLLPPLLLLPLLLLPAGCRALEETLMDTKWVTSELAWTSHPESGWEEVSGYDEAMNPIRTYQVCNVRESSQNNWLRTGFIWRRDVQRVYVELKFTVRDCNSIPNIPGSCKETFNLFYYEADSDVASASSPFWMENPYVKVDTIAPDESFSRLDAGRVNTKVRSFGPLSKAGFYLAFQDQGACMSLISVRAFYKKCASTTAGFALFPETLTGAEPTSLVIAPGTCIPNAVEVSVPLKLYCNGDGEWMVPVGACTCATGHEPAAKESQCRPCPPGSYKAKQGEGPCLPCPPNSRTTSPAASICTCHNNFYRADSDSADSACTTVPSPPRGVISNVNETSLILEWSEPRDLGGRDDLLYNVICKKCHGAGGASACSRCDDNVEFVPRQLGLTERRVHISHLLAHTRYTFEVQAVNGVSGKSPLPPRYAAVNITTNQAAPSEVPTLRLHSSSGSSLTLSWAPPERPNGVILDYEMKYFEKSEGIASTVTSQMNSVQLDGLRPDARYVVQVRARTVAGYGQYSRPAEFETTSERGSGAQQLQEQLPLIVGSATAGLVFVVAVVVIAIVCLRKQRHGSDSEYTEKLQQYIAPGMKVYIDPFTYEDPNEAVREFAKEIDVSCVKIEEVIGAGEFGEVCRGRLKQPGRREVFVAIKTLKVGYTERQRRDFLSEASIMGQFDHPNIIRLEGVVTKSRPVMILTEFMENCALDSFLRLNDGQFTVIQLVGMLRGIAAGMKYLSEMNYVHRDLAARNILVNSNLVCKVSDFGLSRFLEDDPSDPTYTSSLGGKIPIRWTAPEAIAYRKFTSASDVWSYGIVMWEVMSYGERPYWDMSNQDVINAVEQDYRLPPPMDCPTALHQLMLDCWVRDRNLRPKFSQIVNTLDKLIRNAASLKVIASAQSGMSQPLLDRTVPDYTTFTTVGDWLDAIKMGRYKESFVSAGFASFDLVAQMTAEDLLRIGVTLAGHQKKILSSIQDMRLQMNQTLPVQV
Briefly: Residual activity of EPHB3 at 10 uM by microplate scintillation counting.

In assay [5] the target is T3, NUAK family SNF1-like kinase 2 (Homo sapiens) (UniProt Q9H093).
T3 sequence (whole entry): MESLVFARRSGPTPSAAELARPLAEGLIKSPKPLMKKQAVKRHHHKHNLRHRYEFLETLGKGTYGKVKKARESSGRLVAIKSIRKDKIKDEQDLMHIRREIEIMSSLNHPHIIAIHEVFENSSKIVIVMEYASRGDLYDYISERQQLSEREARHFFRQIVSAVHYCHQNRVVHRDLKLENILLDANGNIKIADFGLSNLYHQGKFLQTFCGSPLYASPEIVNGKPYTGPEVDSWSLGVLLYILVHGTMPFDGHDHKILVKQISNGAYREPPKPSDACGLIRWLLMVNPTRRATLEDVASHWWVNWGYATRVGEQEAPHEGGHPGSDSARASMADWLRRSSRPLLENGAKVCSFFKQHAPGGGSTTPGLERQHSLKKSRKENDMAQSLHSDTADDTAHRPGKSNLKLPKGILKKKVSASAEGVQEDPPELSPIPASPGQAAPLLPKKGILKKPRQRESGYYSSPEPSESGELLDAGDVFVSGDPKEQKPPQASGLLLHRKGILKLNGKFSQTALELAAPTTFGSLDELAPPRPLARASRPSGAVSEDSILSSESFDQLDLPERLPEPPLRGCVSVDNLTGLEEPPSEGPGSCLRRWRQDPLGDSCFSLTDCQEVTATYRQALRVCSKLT
Kind of assay: Residual activity of SNARK at 0.1 uM by microplate scintillation counting.

The residual activity is the signal under treatment as a percentage of the control signal.

`COc1cc2c(Oc3ccc(-c4nc5ccccc5s4)cc3)ncnc2cc1OCCCN1CCCC1`: the residual activity in assay [1] is 83%; in assay [2], 94%; in assay [3], 106%; in assay [4], 227%; in assay [5], 84%.

On to `COc1cc2c(Oc3ccc(-c4nc5ccccc5s4)cc3F)ncnc2cc1OCCCN1CCN(C)CC1`, for which the residual activity in assay [1] amounted to 102%; in assay [2] it was 92%; in assay [3] it was 81%; in assay [4] it was 105%; in assay [5], 88%.

With `COc1cc2c(Oc3ccc(-c4nc5ccccc5s4)cc3)ncnc2cc1OCCCN1CCN(C)CC1`, the residual activity worked out at 103% in assay [1]; 102% in assay [2]; 83% in assay [3]; 372% in assay [4]; 96% in assay [5].
